Read-outs that look alike come from different tables or passages of the source.
Biological target: T1, human HDAC6 (Homo sapiens, UniProt Q9UBN7)
T1 construct: Reaction Biology Corporation
T1 sequence (Q9UBN7 1-1215): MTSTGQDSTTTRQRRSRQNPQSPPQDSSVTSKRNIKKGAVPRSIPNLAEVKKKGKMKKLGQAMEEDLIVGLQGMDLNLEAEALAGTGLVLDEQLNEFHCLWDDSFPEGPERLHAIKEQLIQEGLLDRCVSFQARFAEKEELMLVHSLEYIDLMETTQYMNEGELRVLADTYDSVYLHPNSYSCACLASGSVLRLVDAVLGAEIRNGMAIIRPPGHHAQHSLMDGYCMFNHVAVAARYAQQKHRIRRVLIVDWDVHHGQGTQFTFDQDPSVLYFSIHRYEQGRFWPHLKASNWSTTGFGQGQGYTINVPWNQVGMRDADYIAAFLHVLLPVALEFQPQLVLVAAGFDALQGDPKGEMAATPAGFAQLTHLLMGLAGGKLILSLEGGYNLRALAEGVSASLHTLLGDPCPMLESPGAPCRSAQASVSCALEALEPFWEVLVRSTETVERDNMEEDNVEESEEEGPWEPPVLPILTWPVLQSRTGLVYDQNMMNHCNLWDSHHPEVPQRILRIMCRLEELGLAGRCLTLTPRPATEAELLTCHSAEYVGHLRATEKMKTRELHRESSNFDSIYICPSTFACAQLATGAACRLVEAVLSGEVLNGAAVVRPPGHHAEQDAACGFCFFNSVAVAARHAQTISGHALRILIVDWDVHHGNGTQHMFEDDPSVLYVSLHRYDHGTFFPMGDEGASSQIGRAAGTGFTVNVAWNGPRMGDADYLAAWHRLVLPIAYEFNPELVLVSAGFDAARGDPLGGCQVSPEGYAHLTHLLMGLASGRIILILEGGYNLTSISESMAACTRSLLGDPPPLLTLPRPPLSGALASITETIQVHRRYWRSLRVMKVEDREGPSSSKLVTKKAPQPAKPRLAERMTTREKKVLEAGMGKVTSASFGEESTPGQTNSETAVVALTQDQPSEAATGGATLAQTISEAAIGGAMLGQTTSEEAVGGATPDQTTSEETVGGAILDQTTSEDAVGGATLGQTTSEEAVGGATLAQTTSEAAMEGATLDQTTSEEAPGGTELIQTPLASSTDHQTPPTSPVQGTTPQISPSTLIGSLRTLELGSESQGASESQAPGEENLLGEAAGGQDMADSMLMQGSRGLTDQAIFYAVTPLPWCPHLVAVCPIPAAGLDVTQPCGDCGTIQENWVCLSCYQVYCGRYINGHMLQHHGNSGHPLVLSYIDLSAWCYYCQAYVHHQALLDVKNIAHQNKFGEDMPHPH
Test: HDAC6 inhibition, fluorogenic peptide substrate (Reaction Biology Corporation)
Format: biochemical
Procedure: The compounds of the present invention were tested for inhibition of human HDAC6 at Reaction Biology Corporation by using 50 μM Fluorogenic peptide from p53 residues 379-382 (RHKKAc) as the substrate.

[1] = 50 μM fluorogenic peptide from p53 residues 379-382 (RHKKAc) as substrate, read-out: IC50, HDAC6 inhibition

| SMILES | IC50 [1] | IC50 |
| --- | --- | --- |
| CN1CCc2c(Sc3ccc(C(=O)NO)cc3)c3ccccc3n2C1 [Example 1, N-Hydroxy-4-((2-methyl-1,2,3,4-tetrahydropyrimido[1,6-a]indol-5-yl)thio)benzamide] | 2.48 nM |  |
| Cc1ccc2c(c1)c(Sc1ccc(C(=O)NO)cc1)c1n2CN(C)CC1 [Example 2, 4-((2,7-Dimethyl-1,2,3,4-tetrahydropyrimido[1,6-a]indol-5-yl)thio)-N-hydroxybenzamide] | 35.5 nM |  |
| CN1CCc2c(Cc3ccc(C(=O)NO)cc3)c3ccccc3n2C1 [Example 3, N-hydroxy-4-((2-methyl-1,2,3,4-tetrahydropyrimido[1,6-a]indol-5-yl)methyl)benzamide] | 10.7 nM |  |
| CN1CCc2c(C(=O)c3ccc(C(=O)NO)cc3)c3ccccc3n2C1 [Example 4, N-hydroxy-4-(2-methyl-1,2,3,4-tetrahydropyrimido[1,6-a]indole-5-carbonyl)benzamide] |  | 1490 nM |
| CN1CCn2c(c(Sc3ccc(C(=O)NO)cc3)c3ccccc32)C1=O [Example 5, N-hydroxy-4-((2-methyl-1-oxo-1,2,3,4-tetrahydropyrazino[1,2-a]indol-10-yl)thio)benzamide] | 1.76 nM |  |
